Experimental data reported in US20210255193A1, “LYSINE REACTIVE PROBES AND USES THEREOF” (The Scripps Research Institute, priority 2017, published 2021).
Blank lines part the entries; values can stand above or below the compound they belong to.

Experiments:
Assay in all cases: competitive isoTOP-ABPP
HK1 Hexokinase-1 = target: T1, HK1 Hexokinase-1 (Homo sapiens, UniProt P19367); format: binding; set-up: key to isoTOP-ABPP reactivity ratio at lysine P19367_K510: R = MS1 peak area ratio, DMSO (heavy) / compound-treated (light); settings: for isoTOP-ABPP ratio (R) at liganded lysine P19367_K510: sol, 231
T1 construct: isoTOP-ABPP experiments performed in cell lysates (in vitro); endogenous in cells; host or cells: soluble proteome of human cancer cell lines (MDA-MB-231; Ramos and Jurkat also prepared)
T1 sequence (P19367 1-917): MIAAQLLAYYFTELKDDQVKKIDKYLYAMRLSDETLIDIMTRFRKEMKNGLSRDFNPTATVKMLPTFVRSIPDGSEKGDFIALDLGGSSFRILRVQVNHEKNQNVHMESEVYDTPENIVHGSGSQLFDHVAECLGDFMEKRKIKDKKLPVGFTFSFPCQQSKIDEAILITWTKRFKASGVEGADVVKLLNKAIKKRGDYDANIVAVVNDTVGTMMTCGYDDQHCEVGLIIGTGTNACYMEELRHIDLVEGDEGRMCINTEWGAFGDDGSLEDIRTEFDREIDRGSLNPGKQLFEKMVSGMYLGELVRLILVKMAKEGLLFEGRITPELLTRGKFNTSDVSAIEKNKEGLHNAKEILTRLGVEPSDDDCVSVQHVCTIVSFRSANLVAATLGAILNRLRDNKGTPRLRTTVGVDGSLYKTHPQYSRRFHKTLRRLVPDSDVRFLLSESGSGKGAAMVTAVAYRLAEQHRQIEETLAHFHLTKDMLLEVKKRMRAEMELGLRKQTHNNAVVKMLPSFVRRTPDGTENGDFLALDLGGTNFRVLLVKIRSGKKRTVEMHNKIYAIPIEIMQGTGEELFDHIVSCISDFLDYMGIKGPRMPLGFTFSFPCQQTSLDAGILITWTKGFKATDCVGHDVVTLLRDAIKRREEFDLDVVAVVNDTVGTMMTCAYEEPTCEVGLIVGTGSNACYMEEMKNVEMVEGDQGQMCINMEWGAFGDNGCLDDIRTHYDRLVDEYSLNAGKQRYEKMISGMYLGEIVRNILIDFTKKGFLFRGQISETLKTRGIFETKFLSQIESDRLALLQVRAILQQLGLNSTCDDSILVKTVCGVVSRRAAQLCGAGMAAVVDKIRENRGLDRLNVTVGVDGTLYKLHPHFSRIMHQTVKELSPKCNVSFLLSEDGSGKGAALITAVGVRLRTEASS
Description: (§1) In vitro covalent fragment treatment for isoTOP-ABPP. All compounds were made up as solutions in DMSO (100×) and were used at a final concentration of 50 μM for activated esters and 100 μM for guanidinylating agents. For each profiling sample, 0.5 ml of lysate was treated with 5 μl of the 100× compound stock solution or 5 μl of DMSO. Samples were treated with activated esters for
(§2) STP-alkyne labeling and click chemistry. For concentration-dependent reactivity measurements by isoTOP-ABPP, 0.5 ml proteome aliquots were treated at ambient temperature with 1 mM STP-alkyne 1 (5 μl of 100 mM stock in DMSO) and 0.1 mM STP alkyne 1 (5 μl of 10 mM stock in DMSO), respectively. For competitive isoTOP-ABPP, after in vitro fragment treatment (detailed above), the samples were labeled for 1 h at ambient temperature with 0.1 mM STP-alkyne 1 (5 μl of 10 mM stock in DMSO). Samples were conjugated by copper-mediated azide-alkyne cycloaddition (CuAAC) to either the light (1 mM STP-alkyne or fragment treated) or heavy (0.1 mM STP-alkyne or DMSO treated) TEV tags (10 μl of 5 mM stocks in DMSO, final concentration=100 μM) using tris(2-carboxyethyl)phosphine hydrochloride
(§3) R value calculation and processing. The ratios of light and heavy MS1 peaks for each unique peptide were quantified with a CIMAGE software using default parameters (3 MS1 acquisitions per peak and signal to noise threshold set to 2.5). For reactivity measurements by isoTOP-ABPP, the R value was calculated from the ratio of MS1 peak areas, comparing the 1 mM STP alkyne sample (light TEV tag) with the 0.1 mM STP alkyne sample (heavy TEV tag). For competitive isoTOP-ABPP, the R value was calculated from the ratio of MS1 peak areas, comparing the DMSO treated sample (heavy TEV tag) with the compound treated sample (light TEV tag). […] Ratios for unique peptide entries are calculated for each experiment; overlapping peptides with the same modified lysine (for example, different charge states, MudPIT chromatographic steps or tryptic termini) are grouped together and the median ratio is reported as the final ratio (R). The peptide ratios reported by CIMAGE were further filtered to ensure the removal or correction of low-quality ratios in each individual data set. The quality filters applied were the following: removal of half tryptic peptides; for ratios with high standard deviations from the median (90% of the median or above) the lowest ratio was taken instead of the median; removal of peptides with R=20 and only a single MS2 event triggered during the elution of the parent ion; manual annotation of all the peptides with ratios of 20, removing any peptides with low quality elution profiles that remained after the previous curation steps (only done for competitive isoTOP-ABPP).
(§4) Cross-data processing for fragment screening. For compound treated samples, biological replicates of the same condition were averaged, if the standard deviation was below 60% of the mean; otherwise, for lysines with at least one R value <4 for a particular compound, the lowest value of the ratio set was taken. For lysines, where all R values for a particular compound were ≥4, the average was reported. For peptides containing several possible modified lysines, the lysine with the highest number of quantification events was used for analysis and the remaining, redundant peptides were reported as alternative modification sites. Peptides included in the aggregate dataset (those used for further bioinformatics and statistical analyses) were required to have been quantified in 2 experiments for competitive isoTOP-ABPP. Lysines were categorized as liganded, if they had at least one ratio R≥4 (hit fragments). For liganded lysines with R=20 for all liganding events, lysines were required to have been quantified with R=20 in two separate experiments and were further required to have been quantified with R<20 in one additional experiment.

[1] = target: T2, MAP1LC3B Microtubule-associated proteins 1A/1B light chain (Homo sapiens, UniProt Q9GZQ8); format: binding; set-up: key to isoTOP-ABPP reactivity ratio at lysine Q9GZQ8_K51: R = MS1 peak area ratio, DMSO (heavy) / compound-treated (light); settings: for isoTOP-ABPP ratio (R) at liganded lysine Q9GZQ8_K51: sol, 231
T2 construct: isoTOP-ABPP experiments performed in cell lysates (in vitro); endogenous in cells; host or cells: soluble proteome of human cancer cell lines (MDA-MB-231; Ramos and Jurkat also prepared)
Description: as §1, §2, §3, §4

[2] = target: T3, ABCE1 ATP-binding cassette sub-family E member 1 (Homo sapiens, UniProt P61221); settings: for isoTOP-ABPP ratio (R) at liganded lysine P61221_K191 / isoTOP-ABPP ratio (R) at liganded lysine P61221_K478: sol, 231
T3 construct: isoTOP-ABPP experiments performed in cell lysates (in vitro); endogenous in cells; host or cells: soluble proteome of human cancer cell lines (MDA-MB-231, Ramos, Jurkat)
Description: as §1, §2, §3, §4

Compound: O=C(Oc1ccc([N+](=O)[O-])cc1[N+](=O)[O-])C1CCN(C(=O)OCc2ccccc2)CC1 [fragment 34, 1-Benzyl 4-(2,4-dinitrophenyl) piperidine-1,4-dicarboxylate]
isoTOP-ABPP ratio (R) at liganded lysine P19367_K510 (HK1 Hexokinase-1; 50 uM, in vitro): 20.0 | isoTOP-ABPP ratio (R) at liganded lysine Q9GZQ8_K51 ([1]; 50 uM, in vitro): 1.0 | isoTOP-ABPP ratio (R) at liganded lysine P61221_K191 ([2]; 50 uM, in vitro): 1.0 | isoTOP-ABPP ratio (R) at liganded lysine P61221_K478 ([2]; 50 uM, in vitro): 1.2

Compound: O=C(CC12CC3CC(CC(C3)C1)C2)Oc1ccc([N+](=O)[O-])cc1[N+](=O)[O-] [fragment 38, 2,4-Dinitrophenyl 2-(adamantan-1-yl)acetate]
isoTOP-ABPP ratio (R) at liganded lysine P19367_K510 (HK1 Hexokinase-1; 50 uM, in vitro): 1.7 | isoTOP-ABPP ratio (R) at liganded lysine Q9GZQ8_K51 ([1]; 50 uM, in vitro): 0.8 | isoTOP-ABPP ratio (R) at liganded lysine P61221_K478 ([2]; 50 uM, in vitro): 0.9

isoTOP-ABPP ratio, lysine P19367_K510 (HK1 Hexokinase-1; 100 uM_231_sol_in vitro): 1.0 | isoTOP-ABPP ratio, lysine Q9GZQ8_K51 ([1]; 100 uM_231_sol_in vitro): 4.6 | isoTOP-ABPP ratio, lysine P61221_K191 ([2]; 100 uM_231_sol_in vitro): 14.1 | isoTOP-ABPP ratio, lysine P61221_K478 ([2]; 100 uM_231_sol_in vitro): 2.1
Compound: CC(C)(C)OC(=O)N=C(NC(=O)OC(C)(C)C)n1cccn1 [fragment 50, reference compound]

Compound: O=C(CCc1coc2cc(F)ccc2c1=O)Oc1ccc([N+](=O)[O-])cc1[N+](=O)[O-] [fragment 36, 2,4-Dinitrophenyl 3-(7-fluoro-4-oxo-4H-chromen-3-yl)propanoate]
isoTOP-ABPP ratio (R) at liganded lysine P19367_K510 (HK1 Hexokinase-1; 50 uM, in vitro): 3.7 | isoTOP-ABPP ratio (R) at liganded lysine Q9GZQ8_K51 ([1]; 50 uM, in vitro): 0.8 | isoTOP-ABPP ratio (R) at liganded lysine P61221_K191 ([2]; 50 uM, in vitro): 1.0 | isoTOP-ABPP ratio (R) at liganded lysine P61221_K478 ([2]; 50 uM, in vitro): 1.1

isoTOP-ABPP ratio, lysine P19367_K510 (HK1 Hexokinase-1; 50 uM_231_sol_in vitro): 0.9 | isoTOP-ABPP ratio, lysine Q9GZQ8_K51 ([1]; 50 uM_231_sol_in vitro): 0.9 | isoTOP-ABPP ratio, lysine P61221_K191 ([2]; 50 uM_231_sol_in vitro): 1.7 | isoTOP-ABPP ratio, lysine P61221_K478 ([2]; 50 uM_231_sol_in vitro): 1.4
Compound: O=C(Oc1c(F)c(F)c(C(F)(F)F)c(F)c1F)c1cc(C(F)(F)F)cc(C(F)(F)F)c1 [fragment 47, 2,3,5,6-Tetrafluoro-4-(trifluoromethyl)phenyl 3,5-bis(trifluoromethyl)benzoate]

isoTOP-ABPP ratio, lysine P19367_K510 (HK1 Hexokinase-1; 100 uM_231_sol_in vitro): 1.1 | isoTOP-ABPP ratio, lysine Q9GZQ8_K51 ([1]; 100 uM_231_sol_in vitro): 1.6 | isoTOP-ABPP ratio, lysine P61221_K191 ([2]; 100 uM_231_sol_in vitro): 20.0 | isoTOP-ABPP ratio, lysine P61221_K478 ([2]; 100 uM_231_sol_in vitro): 1.0
Compound: COC(=O)NC(=NC(=O)OCC1c2ccccc2-c2ccccc21)n1cccn1 [fragment 49, N-Methoxycarbonyl-N′-9-fluorenylmethoxycarbonyl-pyrazole-1-carboxamidine]

isoTOP-ABPP reactivity ratio at lysine P19367_K510 (HK1 Hexokinase-1; 50 uM, 231 sol, in vitro): 0.9 | isoTOP-ABPP reactivity ratio at lysine Q9GZQ8_K51 ([1]; 50 uM, 231 sol, in vitro): 1.0 | isoTOP-ABPP reactivity ratio at lysine P61221_K478 ([2]; 50 uM, 231 sol, in vitro): 1.0
Compound: CCn1cc(C(=O)Oc2c(F)c(F)c(F)c(F)c2F)c(=O)c2ccc(C)nc21 [fragment 28, Pentafluorophenyl 1-ethyl-7-methyl-4-oxo-1,4-dihydro-1,8-naphthyridine-3-carboxylate]

R value (DMSO/fragment) for probe 1 labeling (HK1 Hexokinase-1; P19367_K510, 50 uM, 231 sol, in vitro): 1.2 | R value (DMSO/fragment) for probe 1 labeling ([1]; Q9GZQ8_K51, 50 uM, 231 sol, in vitro): 1.0 | R value (DMSO/fragment) for probe 1 labeling ([2]; P61221_K191, 50 uM, 231 sol, in vitro): 0.9 | R value (DMSO/fragment) for probe 1 labeling ([2]; P61221_K478, 50 uM, 231 sol, in vitro): 1.1
Compound: O=C(CCc1cn(-c2ccccc2)nc1-c1ccccc1)Oc1c(F)c(F)c(F)c(F)c1F [fragment 19, Pentafluorophenyl 3-(1,3-diphenyl-1H-pyrazol-4-yl)propanoate]
